Consider 22 compounds from US12144874B2, “Synthesis and composition of photodynamic therapeutic agents for the targeted treatment of cancer” (On Target Laboratories, LLC, priority 2015, dated 2024).

One test concerns subcutaneous KB tumor. As to the kind of experiment: In vivo PDT efficacy on growth of subcutaneous KB tumor xenograft in nude mice. Conditions: 50 nmol dose, laser 75 mW/cm^2, 137 J/cm^2, 38 min, 3 h after injection. The protocol:
The growth of the tumor was monitored (images were taken) and tumor volume was measured using caliper.
In the following examples, the in vivo efficacy of the compounds is determined using KB tumor cell xenograft in nude mice. In these studies, KB cells were implanted subcutaneously and growth of the tumors was monitored. […] Moreover, once tumors grow to […], the compounds were injected via tail vein. […] In vivo efficacy of BPheid-a was evaluated by monitoring reduction of tumor volume.
KB cells that overexpressed folate receptor were implanted subcutaneously into female nude mice and allowed to grow to ˜50 mm^3 prior to initiation of treatment with 50 nmol of BPheid-a (1). […] In vivo efficacy of BPheid-a was evaluated by monitoring reduction of tumor volume.

The test system of the next test is KB cells. Conditions: for IC50: Table 3, nucleus-targeted modified PDT agents.
Where [1] appears, read: Table 2, mitochondrial-targeted modified PDT agents, free drugs in DMSO, 2 h incubation, laser 32 min, then 24 h.
The mark [2] stands for this setting: free drugs in DMSO, 2 h incubation, laser 32 min, then 24 h.
Setting [3] is: Table 8, folate-targeted releasable visudyne conjugates.

Entries after “also recorded” stand apart in the source; their conditions may differ. Like-named read-outs stand apart in the source and are kept apart here.

Consider `CC[C@H]1c2cc3[nH]c4c(c3C)C(=O)C(C(=O)OC)c4c3nc(cc4[nH]c(cc(n2)[C@@H]1C)c(C(C)=O)c4C)[C@@H](C)[C@@H]3CCC(=O)NNC(=O)OCCSSC[C@H](NC(=O)CCOCCOCCOCCOCCOCCOCCNC(=O)CC[C@H](NC(=O)c1ccc(NCc2cnc3nc(N)[nH]c(=O)c3n2)cc1)C(=O)O)C(=O)O` (single isomer, unassigned) [Compound 76b], for which the “Effect on growth of subcutaneous KB tumor, in words” value (shortened to “Effect on growth”) in the test on subcutaneous KB tumor was “less active in mice as compared to 76a and 76c; also recorded: completely cured with no recurrence during the monitored time (3 weeks)”. Further, the midpoint of the response in the test with KB cells (2 h), the EC50, lay at 320 nM.
Regarding `CC[C@H]1c2cc3[nH]c4c(c3C)C(=O)C(C(=O)OC)c4c3nc(cc4[nH]c(cc(n2)[C@@H]1C)c(C(C)=O)c4C)[C@@H](C)[C@@H]3CCC(=O)NNC(=O)OCCSSC[C@H](NC(=O)CCOCCOCCOCCOCCOCCOCCOCCOCCNC(=O)CC[C@H](NC(=O)c1ccc(NCc2cnc3nc(N)[nH]c(=O)c3n2)cc1)C(=O)O)C(=O)O` (single isomer, unassigned) [Compound 76d], the 50% effective concentration (EC50) in the test with KB cells (2 h) turned out to be 339 nM.
For the compound `Oc1cccc(-c2c3nc(c(-c4cccc(O)c4)c4ccc([nH]4)c(-c4cccc(O)c4)c4nc(c(-c5cccc(O)c5)c5ccc2[nH]5)CC4)C=C3)c1` [Compound 6, Foscan, reference compound], the EC50 result in the test with KB cells (Table 1, non-targeted PDT agents, free drugs in DMSO, 2 h incubation, laser 6 mW/cm^2, 12 J/cm^2, 32 min, then 24 h) is on record as “Not active”.
For the compound `CC[C@H]1c2cc3[nH]c4c(c3C)C(=O)C(C(=O)OC)c4c3nc(cc4[nH]c(cc(n2)[C@@H]1C)c(C(C)=O)c4C)[C@@H](C)[C@@H]3CCC(=O)NCCC[C@@H](C(=O)OC(C)(C)C)[N+](C)(C)C` (stereo partly drawn) [Compound 11b], it took 23.1 nM to reach a half-maximal effect in the test on KB cells (setting [1]) (EC50).
For the compound `CC[C@H]1c2cc3[nH]c4c(c3C)C(=O)C(C(=O)OC)c4c3nc(cc4[nH]c(cc(n2)[C@@H]1C)c(C(C)=O)c4C)[C@@H](C)[C@@H]3CCC(=O)NCCC[C@@H](C(=O)O)[N+](C)(C)C` (stereo partly drawn) [Compound 12b], the EC50 in the test on KB cells (setting [1]) worked out at 15.4 nM.
Still for that read-out and setting: in the case of `CC[C@H]1c2cc3[nH]c4c(c3C)C(=O)C(C(=O)OC)c4c3nc(cc4[nH]c(cc(n2)[C@@H]1C)c(C(C)=O)c4C)[C@@H](C)[C@@H]3CCC(=O)N[C@@H](CCC(=O)NC1C(O)OC(CO)C(O)C1O)C(=O)O` (stereo partly drawn) [Compound 19] it was 550 nM.
Take `CC[C@H]1C2=Cc3c(C)c(C(=O)NNC(=O)Nc4cccc(S(=O)(=O)O)c4)c4[n]3[Pd][n]3c(c(C)c(C(C)=O)c3=CC(=N2)[C@@H]1C)=CC1=NC(=C4CC(=O)OC)[C@@H](CCC(=O)O)[C@@H]1C` [Compound 39]: the IC50 result with KB cells (setting [2]) was “Not active*”.
Still for that read-out and setting: in the case of `CC[C@H]1c2cc3[nH]c4c(c3C)C(=O)C(C(=O)OC)c4c3nc(cc4[nH]c(cc(n2)[C@@H]1C)c(C(C)=O)c4C)[C@@H](C)[C@@H]3CCC(=O)N[C@@H](CC(=O)NCCS(=O)(=O)O)C(=O)O` (stereo partly drawn) [Compound 40] it was 4080 nM; in that of `CC[C@H]1c2cc3[nH]c4c(c3C)C(=O)C(C(=O)OC)c4c3nc(cc4[nH]c(cc(n2)[C@@H]1C)c(C(C)=O)c4C)[C@@H](C)[C@@H]3CCC(=O)NC(Cc1ccc(N(CCCl)CCCl)cc1)C(=O)O` (stereo partly drawn) [Compound 41], 68 nM.
On to `CC[C@H]1c2cc3[nH]c4c(c3C)C(=O)C(C(=O)OC)c4c3nc(cc4[nH]c(cc(n2)[C@@H]1C)c(C(C)=O)c4C)[C@@H](C)[C@@H]3CCC(=O)NCCSSC[C@H](NC(=O)[C@H](CC(=O)NCCS(=O)(=O)O)NC(=O)CC[C@H](NC(=O)c1ccc(NCc2cnc3nc(N)[nH]c(=O)c3n2)cc1)C(=O)O)C(=O)O` (stereo partly drawn) [Compound 64], for which the “Effect on growth” value in the test with subcutaneous KB tumor was “completely cure the tumor and showed tumor regression for 2 weeks”.
For `CC[C@H]1c2cc3[nH]c4c(c3C)C(=O)C(C(=O)OC)c4c3nc(cc4[nH]c(cc(n2)[C@@H]1C)c(C(C)=O)c4C)[C@@H](C)[C@@H]3CCC(=O)NCCNC(=O)OCCSSC[C@H](NC(=O)[C@H](CC(=O)NCCS(=O)(=O)O)NC(=O)CC[C@H](NC(=O)c1ccc(NCc2cnc3nc(N)[nH]c(=O)c3n2)cc1)C(=O)O)C(=O)O` (stereo partly drawn) [Compound 65c], in the test on KB cells (2 h), the EC50 worked out at 11.6 nM.
In the case of `C=CC1=C(C)c2cc3[nH]c(cc4nc(cc5[nH]c(cc1n2)c(C)c5CCC(=O)OC)C(CCC(=O)NNC(=O)OCCSSCC(NC(=O)c1ccc(NCc2cnc5nc(N)[nH]c(=O)c5n2)cc1)C(=O)O)=C4C)[C@@]1(C)C3=CC=C(C(=O)OC)[C@H]1C(=O)OC` (stereo partly drawn) [Compound 81], in the test on KB cells, the “Activity on KB cancer cells in culture, in words” value is listed as “not active”. Besides, in the test on KB cells (setting [3]), the EC50 result is “Not active*”.
In the case of `C=CC1=C(C)c2cc3[nH]c(cc4nc(cc5[nH]c(cc1n2)c(C)c5CCC(=O)NNC(=O)OCCSSC[C@H](NC(=O)[C@H](CCCNC(=N)N)NC(=O)C[C@@H](NC(=O)[C@H](CCCNC(=N)N)NC(=O)CC[C@H](NC(=O)c1ccc(NCc2cnc5nc(N)[nH]c(=O)c5n2)cc1)C(=O)O)C(=O)O)C(=O)O)C(CCC(=O)OC)=C4C)[C@]1(C)C3=CC=C(C(=O)OC)[C@@H]1C(=O)OC` [Compound 85], the “Activity on KB cancer cells in culture, in words” value in the test on KB cells was “not active”. The 50% effective concentration (EC50) entry with KB cells (setting [3]) is given as “Not active*”.
Turning to `CC[C@H]1c2cc3[nH]c(c(CC(=O)OC)c4nc(cc5[nH]c(cc(n2)[C@@H]1C)c(C(C)=O)c5C)[C@@H](C)[C@@H]4CCC(=O)NNC(=O)OCCSSC[C@H](NC(=O)CCOCCOCCOCCOCCOCCOCCNC(=O)CC[C@H](NC(=O)c1ccc(NCc2cnc4nc(N)[nH]c(=O)c4n2)cc1)C(=O)O)C(=O)O)c(C(=O)N[N+](C)(C)C)c3C` [Compound 87b], the EC50 in the test with KB cells (2 h) worked out at 6040 nM.
`CC[C@H]1c2cc3[nH]c(c(CC(=O)OC)c4nc(cc5[nH]c(cc(n2)[C@@H]1C)c(C(C)=O)c5C)[C@@H](C)[C@@H]4CCC(=O)NNC(=O)OCCSSC[C@H](NC(=O)CCOCCOCCOCCOCCOCCOCCOCCOCCNC(=O)CC[C@H](NC(=O)c1ccc(NCc2cnc4nc(N)[nH]c(=O)c4n2)cc1)C(=O)O)C(=O)O)c(C(=O)NCCOCCOCCO)c3C` [Compound 88a]: the “Activity class on KB cancer cells in culture (active / highly active)” value in the test on KB cells was “active”. Also, the EC50 with KB cells (2 h) stood at 34.5 nM.
On to `CC[C@@H]1c2cc3[nH]c4c(c3C)C(=O)C(C(=O)OC)c4c3nc(cc4[nH]c(cc(n2)[C@H]1C)c(C(C)=O)c4C)[C@H](C)[C@H]3CCC(=O)NCCC[C@@H](C(=O)NNC(=O)OCCSSC[C@H](NC(=O)[C@H](CC(=O)NCCS(=O)(=O)O)NC(=O)CC[C@H](NC(=O)c1ccc(NCc2cnc3nc(N)[nH]c(=O)c3n2)cc1)C(=O)O)C(=O)O)[N+](C)(C)C` (stereo partly drawn) [Compound 89a], for which the “Effect on growth” value in the test with subcutaneous KB tumor was “completely reduced the tumor”. Also, the response in the test with KB cells (2 h) was half-maximal at 3.7 nM (EC50).
`CC[C@H]1c2cc3[nH]c4c(c3C)C(=O)C(C(=O)OC)c4c3nc(cc4[nH]c(cc(n2)[C@@H]1C)c(C(C)=O)c4C)[C@@H](C)[C@@H]3CCC(=O)N[C@@H](CC(=O)N[N+](C)(C)C)C(=O)NNC(=O)OCCSSC[C@H](NC(=O)C[C@H](NC(=O)CC[C@H](NC(=O)c1ccc(NCc2cnc3nc(N)[nH]c(=O)c3n2)cc1)C(=O)O)C(=O)NCCS(=O)(=O)O)C(=O)O` (stereo partly drawn) [Compound 95a] gave an EC50 in the test on KB cells (2 h) of 166 nM.
As for `CC[C@H]1c2cc3[nH]c4c(c3C)C(=O)C(C(=O)OC)c4c3nc(cc4[nH]c(cc(n2)[C@@H]1C)c(C(C)=O)c4C)[C@@H](C)[C@@H]3CCC(=O)NCCC[C@H](NC(=O)CC[P+](c1ccccc1)(c1ccccc1)c1ccccc1)C(=O)NCCSSC[C@H](NC(=O)[C@H](CC(=O)NCCS(=O)(=O)O)NC(=O)CC[C@H](NC(=O)c1ccc(NCc2cnc3nc(N)[nH]c(=O)c3n2)cc1)C(=O)O)C(=O)O` (stereo partly drawn) [Compound 99], it took 5.3 nM to reach a half-maximal effect in the test on KB cells (2 h) (EC50).
The same measure, in the same setting: as for `CC[C@H]1c2cc3[nH]c(c(CC(=O)OC)c4nc(cc5[nH]c(cc(n2)[C@@H]1C)c(C(C)=O)c5C)[C@@H](C)[C@@H]4CCC(=O)NCCSSC[C@H](NC(=O)[C@H](CC(=O)NCCS(=O)(=O)O)NC(=O)CC[C@H](NC(=O)c1ccc(NCc2cnc4nc(N)[nH]c(=O)c4n2)cc1)C(=O)O)C(=O)O)c(C(=O)N[N+](C)(C)C)c3C` [Compound 101], the figure is 159 nM; as for `CC[C@H]1c2cc3[nH]c4c(c3C)C(=O)C(C(=O)OC)c4c3nc(cc4[nH]c(cc(n2)[C@@H]1C)c(C(C)=O)c4C)[C@@H](C)[C@@H]3CCC(=O)NCCSSC[C@H](NC(=O)[C@H](CC(=O)NCCS(=O)(=O)O)NC(=O)[C@H](CC(=O)NCCS(=O)(=O)O)NC(=O)CC[C@H](NC(=O)c1ccc(NCc2cnc3nc(N)[nH]c(=O)c3n2)cc1)C(=O)O)C(=O)O` (stereo partly drawn) [Compound 105], 45.3 nM; as for `CC[C@H]1c2cc3[nH]c4c(c3C)C(=O)C(C(=O)OC)c4c3nc(cc4[nH]c(cc(n2)[C@@H]1C)c(C(C)=O)c4C)[C@@H](C)[C@@H]3CCC(=O)NCCCC(NC(=O)c1ccc(N(C)Cc2cnc3nc(N)nc(N)c3n2)cc1)C(=O)NNC(=O)OCCSSC[C@H](NC(=O)[C@H](CC(=O)NCCS(=O)(=O)O)NC(=O)CC[C@H](NC(=O)c1ccc(NCc2cnc3nc(N)[nH]c(=O)c3n2)cc1)C(=O)O)C(=O)O` (stereo partly drawn) [Compound 117], 2850 nM.
As for `CC[C@H]1c2cc3[nH]c4c(c3C)C(=O)C(C(=O)OC)c4c3nc(cc4[nH]c(cc(n2)[C@@H]1C)c(C(C)=O)c4C)[C@@H](C)[C@@H]3CCC(=O)N[C@@H](CCC(=O)NCCS(=O)(=O)O)C(=O)NCCNC(=O)OCCSSC[C@H](NC(=O)[C@H](CC(=O)NCCS(=O)(=O)O)NC(=O)CC[C@H](NC(=O)c1ccc(NCc2cnc3nc(N)[nH]c(=O)c3n2)cc1)C(=O)O)C(=O)O` (stereo partly drawn) [Compound 119], the half-maximal effective concentration (EC50) in the test on KB cells (2 h) amounted to 538 nM.

As a reminder, the EC50 is the concentration that produces a half-maximal response. Low values mean higher potency in that assay, high ones lower potency in that assay. As usually defined, the IC50 is the concentration at which inhibition is half-maximal.
